Our source for the Ki values is patent US10357481B2 (MERCK SHARP & DOHME CORP., priority 2015, dated 2019).

SMILES strings stand for the structures.

This experiment concerns the target T1, human PDE2A1 (Homo sapiens, UniProt O00408).
T1 construct: GST; purchased BPS Bioscience (San Diego, Calif.) 60020; host or cells: insect cells
Briefly: IMAP FP PDE selectivity panel, human PDE2A1. Format: biochemical. Conditions: Lab B; read-out: Human PDE2 Ki (nM) Lab B. On the procedure:
Selectivity for PDE2, as compared to other PDE families, was assessed using the IMAP® technology. Human PDE10A2 enzyme was prepared from cytosolic fractions of transiently transfected HEK cells.
Assays for PDE 1 through 11 were performed in parallel at room temperature in 384-well microtiter plates with an incubation volume of 20.2 μL. Solutions of test compounds were prepared in DMSO and serially diluted with DMSO to yield 30 μL of each of ten solutions differing by 3-fold in concentration, at 32 serial dilutions per plate. […] A Labcyte POD 810 (Labcyte, Sunnyvale, Calif.) was used to dispense 200 nL from each well of the titration plate to make eleven copies of the assay plate for each titration, one copy for each PDE enzyme. A solution of each enzyme (dilution from aliquots, sufficient to produce 20% substrate conversion) and a separate solution of FAM-labeled cAMP or FAM-labeled cGMP from Molecular Devices (Sunnyvale, Calif., product # R7506 or cGMP#R7508), at a final concentration of 50 nM were made in the assay buffer (10 mM Tris HCl, pH 7.2, 10 mM MgCl2, 0.05% NaN3 0.01% Tween-20, and 1 mM DTT). Note that the substrate for PDE2 is 50 nM FAM cAMP containing 1000 nM of cGMP. The enzyme and the substrate were then added to the assay plates in two consecutive additions of 10 μL and then shaken to mix. The reaction was allowed to proceed at room temperature for 60 minutes. A binding solution was then made from the kit components, comprised of 80% Solution A, 20% Solution B and binding reagent at a volume of 1/600 the total binding solution. The enzymatic reaction was stopped by addition of 60 μL of the binding solution to each well of the assay plate. The plates were sealed and shaken for 10 seconds. The plates were incubated at room temperature for one hour, then the parallel and perpendicular fluorescence was measured using a Tecan Genios Pro plate reader (Tecan, Switzerland). […] The intrinsic PDE2 inhibitory activity of a compound which may be used in accordance with the present invention may be determined by these assays.

T1 sequence (O00408 1-920 isoform O00408-2): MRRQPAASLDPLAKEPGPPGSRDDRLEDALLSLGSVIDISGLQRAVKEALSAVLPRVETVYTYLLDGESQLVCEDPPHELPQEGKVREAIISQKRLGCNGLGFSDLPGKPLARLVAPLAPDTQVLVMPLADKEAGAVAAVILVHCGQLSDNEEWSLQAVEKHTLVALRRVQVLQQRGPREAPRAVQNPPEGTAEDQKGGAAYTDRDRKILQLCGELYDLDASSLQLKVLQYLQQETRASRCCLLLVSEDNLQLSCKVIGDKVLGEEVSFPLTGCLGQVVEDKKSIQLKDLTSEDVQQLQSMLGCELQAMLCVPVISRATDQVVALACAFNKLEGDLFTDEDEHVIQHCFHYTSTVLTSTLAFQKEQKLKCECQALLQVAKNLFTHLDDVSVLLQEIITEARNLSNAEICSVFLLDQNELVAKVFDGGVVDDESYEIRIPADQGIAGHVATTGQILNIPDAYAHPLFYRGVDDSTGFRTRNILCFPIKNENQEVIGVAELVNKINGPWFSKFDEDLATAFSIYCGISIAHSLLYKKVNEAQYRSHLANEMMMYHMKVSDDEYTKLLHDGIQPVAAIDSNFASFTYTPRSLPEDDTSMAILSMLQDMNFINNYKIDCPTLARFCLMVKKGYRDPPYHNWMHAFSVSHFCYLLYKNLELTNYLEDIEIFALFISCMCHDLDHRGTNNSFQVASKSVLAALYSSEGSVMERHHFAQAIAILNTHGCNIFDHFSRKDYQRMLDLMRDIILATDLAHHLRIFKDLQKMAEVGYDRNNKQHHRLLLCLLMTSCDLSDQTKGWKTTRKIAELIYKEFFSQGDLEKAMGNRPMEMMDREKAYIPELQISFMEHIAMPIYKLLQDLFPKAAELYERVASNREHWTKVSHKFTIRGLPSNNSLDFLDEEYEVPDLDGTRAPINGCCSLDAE

The term Ki denotes a dissociation constant, usually derived from enzyme kinetics or from competition with a known ligand. Turning to `CC(C)(O)C(Nc1cc(C(F)(F)F)nc2ncnn12)c1ccc(C(F)(F)F)cc1F` (single isomer, unassigned) [Example 174, (1R or S)-1-[2-Fluoro-4-(trifluoromethyl)phenyl]-2-methyl-1-{[5-(trifluoromethyl) [1,2,4]triazolo [1,5-a]pyrimidin-7-yl]amino} propan-2-ol], the Ki came to 29 nM.
The figure for `Cc1cc(N[C@@H](c2ccc(C(F)(F)F)cc2)C(C)(C)C)n2ncnc2n1` [Example 26, N-{(1R)-2,2-Dimethyl-1-[4-(trifluoromethyl)phenyl]propyl}-5-methyl[1,2,4]triazolo[1,5-a] pyrimidin-7-amine] is 11 nM.
The figure for `Cc1cc(NC(c2ccc(C(C)(C)C)cc2)C(C)(C)O)n2ncnc2n1` (single isomer, unassigned) [Example 106] is more than 1240 nM; for `Cc1cc(N[C@H](C)c2ccc(C(F)(F)F)cc2)n2ncnc2n1` [Example 1, 5-Methyl-N-{(1R)-1-[4-(trifluoromethyl)phenyl]ethyl}[1,2,4]triazolo[1,5-a]pyrimidin-7-amine] it is 175 nM; for `Cc1cc(NC(c2ccc(-c3ccccc3)cc2)C(C)(C)O)n2ncnc2n1` (single isomer, unassigned) [Example 126, (1S or R)-1-Biphenyl-4-yl-2-methyl-1-[(5-methyl[1,2,4]triazolo[1,5-a]pyrimidin-7-yl)amino]propan-2-ol] it is more than 2960 nM.
As for `CC(C)(O)C(Nc1cc(C(F)(F)F)nc2ncnn12)c1ccc(OC(F)(F)F)cc1F` (single isomer, unassigned) [Example 172, (1R or S)-1-[2-Fluoro-4-(trifluoromethoxy)phenyl]-2-methyl-1-{[5-(trifluoromethyl) [1,2,4]triazolo [1,5-a]pyrimidin-7-yl]amino} propan-2-ol], the Ki is 25 nM.
Regarding `Cc1cc(N[C@H](CC(C)(C)O)c2ccc(C(F)(F)F)c(F)c2)n2ncnc2n1` [Example 152, (4R)-4-[3-Fluoro-4-(trifluoromethyl)phenyl]-2-methyl-4-[(5-methyl[1,2,4]triazolo[1,5-a]pyrimidin-7-yl)amino]butan-2-ol], the Ki is 766 nM.
Consider `Cc1cc(NC2(c3ccc(C(F)(F)F)cc3F)CC2)n2ncnc2n1` [Example 62, N-{1-[2-Fluoro-4-(trifluoromethyl)phenyl]cyclopropyl}5-methyl-[1,2,4]triazolo[1,5-a]pyrimidin-7-amine], for which the Ki came to 162 nM.
As for `Cc1cc(N[C@@H](c2ccc(C3CC3)cc2)C(C)(C)C)n2ncnc2n1` [Example 30, N-[(1R)-1-(4-Cyclopropyl-phenyl)-2,2-dimethylpropyl]-5-methyl[1,2,4]triazolo[1,5-a] pyrimidin-7-amine], the Ki stood at 4.4 nM.
Regarding `CC(C)(O)C(Nc1cc(C(F)F)nc2ncnn12)c1ccc(OC(F)(F)F)cc1F` (single isomer, unassigned) [Example 185, (1S or R)-{[5-(Difluoromethyl) [1,2,4]triazolo [1,5-a]pyrimidin-7-yl]amino}-1-[2-fluoro-4-(trifluoromethoxy)phenyl]-2-methylpropan-2-ol], the Ki came out at 10 nM.
As to `CC(C)(O)C(Nc1cc(C2CC2)nc2ncnn12)c1ccc(S(F)(F)(F)(F)F)cc1` (single isomer, unassigned) [Example 144, (1S or R)-1-[(5- Cyclopropyl [1,2,4]triazolo [1,5-a]pyrimidin-7-yl)amino]-2-methyl-1-[4-(pentafluoro-λ^6-sulfanyl)phenyl]propan-2-ol], the Ki is more than 2960 nM.
`Cc1cc(OC2(c3ccc(C(F)(F)F)cc3)CC2)n2ncnc2n1` [Example 262, 5-Methyl-7-({1-[4-(trifluoromethyl)phenyl]cyclopropyl}oxy)[1,2,4]triazolo[1,5-a]pyrimidine]: the Ki worked out at 137 nM.
The figure for `COCC(Nc1cc(C)nc2ncnn12)c1ccc(C(F)(F)F)c(F)c1` (single isomer, unassigned) [Example 210, (S)- or (R)-N-(1-(3-Fluoro-4-(trifluoromethyl)phenyl)-2-methoxyethyl)-5-methyl-[1,2,4]triazolo [1,5-a]pyrimidin-7-amine] is 583 nM; for `Cc1nc2ncnn2c(NC2(c3ccc(C(F)(F)F)c(F)c3)CC2)c1C` [Example 87, N-{1-[3-Fluoro-4-(trifluoromethyl)phenyl]cyclopropyl}-5,6-dimethyl[1,2,4]triazolo[1,5-a]pyrimidin-7-amine] it is 132 nM.
The figure for `CC(C)(O)C(Nc1cc(Cl)nc2ncnn12)c1ccc(C(F)(F)F)c(F)c1` (single isomer, unassigned) [Example 224, (S)- or (R)-1-(5-Chloro-[1,2,4]triazolo [1,5-a]pyrimidin-7-ylamino)-1-(3-fluoro-4-(trifluoromethyl)phenyl)-2-methylpropan-2-ol] is 612 nM; for `Cc1cc(NC(C)(C)c2ccc(SC(F)(F)F)c(F)c2)n2ncnc2n1` [Example 50, N-(1-{3-Fluoro-4-[(trifluoromethyl)sulfanyl]phenyl}-1-methylethyl)-5-methyl[1,2,4]triazolo[1,5-a] pyrimidin-7-amine] it is 182 nM; for `C[C@H](Nc1cncc2ncnn12)c1ccc(C(F)(F)F)cc1` [Example 289] it is more than 2960 nM.
The figure for `CC(C)(N)C(Nc1cc(C(F)(F)F)nc2ncnn12)c1ccc(C(F)(F)F)c(F)c1` (single isomer, unassigned) [Example 253, (R)- or (S)-1-(3-Fluoro-4-(trifluoromethyl)phenyl)-2-methyl-N^1-(5-(trifluoromethyl)-[1,2,4]triazolo [1,5-a]pyrimidin-7-yl) propane-1,2-diamine] is 83 nM.
For `CC(C)c1cc(NC(c2ccc(C(F)(F)F)cc2)C(C)(C)O)n2ncnc2n1` (stereo in doubt) [Example 156, (1S)-2-Methyl-1-{[5-(1-methylethyl)[1,2,4]triazolo[1,5-a]pyrimidin-7-yl]amino}-1-[4-(trifluoromethyl)phenyl]propan-2-ol], the Ki was found to be 636 nM.
The figure for `Cc1cc(NC2(c3ccc(C(F)(F)F)c(F)c3)CC2)n2ncnc2c1` [Example 263, N-(1-(3-Fluoro-4-(trifluoromethyl)phenyl)cyclopropyl)-7-methyl-[1,2,4]triazolo[1,5-a]pyridin-5-amine] is 101 nM; for `CC(C)(O)C(Nc1cc(C(F)(F)F)nc2ncnn12)c1ccc(OC(F)F)cc1` (single isomer, unassigned) [Example 166, (1R or S)-1-[4-(Difluoromethoxy)phenyl]-2-methyl-1-{[5-(trifluoromethyl) [1,2,4]triazolo [1,5-a]pyrimidin-7-yl]amino} propan-2-ol] it is approximately 2190 nM.
The result for `Cc1cc(N[C@@H](c2ccc(OC(F)(F)F)cc2)C(C)(C)C)n2ncnc2n1` [Example 32, N-{(1R)-2,2-Dimethyl-1-[4-(trifluoromethoxy)phenyl]propyl}-5-methyl[1,2,4]triazolo[1,5-a] pyrimidin-7-amine] reads 6.6 nM; that for `CC(C)(O)C(Nc1cc(C(F)F)nc2ncnn12)c1ccc(C(F)(F)F)c(F)c1` (single isomer, unassigned) [Example 227, (R)- or (S)-1-(5-(Difluoromethyl)-[1,2,4]triazolo [1,5-a]pyrimidin-7-ylamino)-1-(3-fluoro-4-(trifluoromethyl)phenyl)-2-methylpropan-2-ol], 7.6 nM.
On to `Cc1cc(NC(c2ccc(C(F)(F)F)cc2Cl)C(C)(C)O)n2ncnc2n1` (single isomer, unassigned) [Example 104, (1S or R)-1-[2-Chloro-4-(trifluoromethyl)phenyl]-2-methyl-1-[(5-methyl[1,2,4]triazolo[1,5-a]pyrimidin-7-yl)amino]propan-2-ol], for which the Ki is approximately 2780 nM.
For the compound `CC(C)(O)[C@H](Nc1cc(C(F)F)cc2ncnn12)c1ccc(S(F)(F)(F)(F)F)cc1` [Example 283, (1R)-1-{[7-(Difluoromethyl) [1,2,4]triazolo[1,5-a]pyridin-5-yl]amino}-2-methyl-1-[4-(pentafluoro-λ^6-sulfanyl)phenyl]propan-2-ol], the Ki worked out at 498 nM.
In the case of `Cc1cc(N[C@@H](c2ccc(C(F)(F)F)c(F)c2)C(C)(C)C)n2nc(C(F)F)nc2n1` [Example 207, (R)-2-(Difluoromethyl)-N-(1-(3-fluoro-4-(trifluoromethyl)phenyl)-2,2-dimethylpropyl)-5-methyl-[1,2,4]triazolo [1,5-a]pyrimidin-7-amine], the Ki came to 74 nM.
The figure for `CC(C)(C)c1cc(NC2(c3ccc(C(F)(F)F)c(F)c3)CC2)n2ncnc2n1` [Example 73] is 72 nM; for `Cc1cc(N[C@@H](c2ccc(C(F)(F)F)cc2)C(C)(C)O)n2ncnc2c1` [Example 265, (1S)-2-Methyl-1-[(7-methyl[1,2,4]triazolo[1,5-a]pyridin-5-yl)amino]-1-[4-(trifluoromethyl)phenyl]propan-2-ol] it is 82 nM.
